# Source: publication PMC8263253, “Agonist and antagonist properties of an insect GABA-gated chloride channel (RDL) are influenced by heterologous expression conditions” (PLoS ONE, 2021)
# Where “and” joins values, the source holds several entries; their conditions need not be identical. Equal entries are not always repeated.
# Target: BtRDL (Bombus terrestris RDL GABA-gated chloride channel) (Bombus terrestris audax, UniProt A0A8F2J2P3)
# Test: Two-electrode voltage-clamp recording of BtRDL expressed in Xenopus oocytes
# Format: cell-based
# Conditions: for IC50: IC50 for block of GABA responses
# Experimental: For convenience, these amounts of cRNA are referred to subsequently as 1 ng and 10 ng.
# Xenopus were anaesthetised by immersion in 0.2% MS222 for 15 minutes (or until complete anaesthesia was confirmed by absence of leg-withdrawal and righting reflex), followed by cranial concussion, decapitation and pithing. Xenopus oocytes were isolated, maintained and injected with cRNA, as described previously [24]. […] Application of compounds was controlled by LabChart software (AD Instruments) using a BPS-8 solenoid valve solution exchange system (ALA Scientific Inc). Typically, agonists were applied for 5 s or until a plateau in the response was observed. Antagonists were pre-applied for 30 s and then co-applied with agonist for 5s or until a plateau in the response. was observed.
# Chain of BtRDL (Bombus terrestris RDL GABA-gated chloride channel) (A0A8F2J2P3 entry or part of it): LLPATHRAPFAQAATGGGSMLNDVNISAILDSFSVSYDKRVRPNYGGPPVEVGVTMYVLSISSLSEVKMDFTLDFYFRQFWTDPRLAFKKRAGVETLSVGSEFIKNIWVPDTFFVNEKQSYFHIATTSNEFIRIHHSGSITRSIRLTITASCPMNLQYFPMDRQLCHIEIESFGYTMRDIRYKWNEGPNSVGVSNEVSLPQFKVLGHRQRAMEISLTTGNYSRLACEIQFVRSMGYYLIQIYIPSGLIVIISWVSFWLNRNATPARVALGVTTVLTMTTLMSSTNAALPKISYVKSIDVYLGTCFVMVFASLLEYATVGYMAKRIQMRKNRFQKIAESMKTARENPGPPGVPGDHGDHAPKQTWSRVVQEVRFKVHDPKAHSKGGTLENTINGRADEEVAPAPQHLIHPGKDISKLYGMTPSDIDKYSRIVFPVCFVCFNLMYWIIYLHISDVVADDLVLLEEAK
smiles,measurement,setting,value
"NCCCC(=O)O [GABA, γ-aminobutyric acid]",maximum current (Imax) to GABA,"1 ng BtRDL cRNA lacking 3'UTR, 1–3 days post-injection",0.67 ± 0.04 μA
same,maximum current (Imax) to GABA,BtRDL 1 ng cRNA (+3'UTR) co-expressed with DmNACHO,3.4 ± 0.6 μA
same,EC50,"GABA EC50, pGEMHE-BtRDL digested with NheI (3'UTR retained), 1 ng cRNA, three-days post-injection",4 ± 1.1 µM
same,EC50,"GABA EC50, pGEMHE-BtRDL digested with XbaI (3'UTR removed), 1 ng cRNA, three-days post-injection",27.6 ± 1.6 µM
same,EC50,"GABA EC50, pSP64GL-BtRDL cRNA containing 3'UTR, 1 ng, BtRDL expressed alone, three-days post-injection",3.7 ± 0.4 µM
same,EC50,"GABA EC50, pSP64GL-BtRDL cRNA lacking 3'UTR, 1 ng, three-days post-injection",31.4 ± 2.1 µM
same,EC50,"GABA apparent affinity EC50, BtRDL 1 ng cRNA (+3'UTR) + 10 ng cRNA CeRIC-3, Day 1",10.6 ± 1.1 µM
same,EC50,"GABA apparent affinity EC50, BtRDL 1 ng cRNA (+3'UTR) + 10 ng cRNA CeRIC-3, Day 2",5 ± 0.9 µM
same,EC50,"GABA apparent affinity EC50, BtRDL 1 ng cRNA (+3'UTR) + 10 ng cRNA CeRIC-3, Day 3",4.2 ± 1 µM
same,EC50,"GABA apparent affinity EC50, BtRDL 1 ng cRNA (+3'UTR) + 10 ng cRNA DmNACHO, Day 1",21 ± 1.1 µM
same,EC50,"GABA apparent affinity EC50, BtRDL 1 ng cRNA (+3'UTR) + 10 ng cRNA DmNACHO, Day 2",14.8 ± 1.1 µM
same,EC50,"GABA apparent affinity EC50, BtRDL (+3'UTR), 1 ng cRNA, Day 2 post-injection",4.4 ± 0.7 µM
same,EC50,"GABA apparent affinity EC50, BtRDL (+3'UTR), 1 ng cRNA, Day 3 post-injection",3.9 ± 0.6 µM
same,EC50,"GABA apparent affinity EC50, BtRDL (+3'UTR), 10 ng cRNA, Day 1 post-injection",10.8 ± 1.2 µM
same,EC50,"GABA apparent affinity EC50, BtRDL (+3'UTR), 10 ng cRNA, Day 2 post-injection",2 ± 0.7 µM
same,EC50,"GABA apparent affinity EC50, BtRDL (+3'UTR), 10 ng cRNA, Day 3 post-injection",1.8 ± 0.4 µM
same,EC50,"GABA apparent affinity EC50, BtRDL (-3'UTR), 1 ng cRNA, Day 1 post-injection",29.7 ± 1.1 µM
same,EC50,"GABA apparent affinity EC50, BtRDL (-3'UTR), 1 ng cRNA, Day 2 post-injection",28.3 ± 1.1 µM
same,EC50,"GABA apparent affinity EC50, BtRDL (-3'UTR), 1 ng cRNA, Day 3 post-injection",29.4 ± 1 µM
same,EC50,"GABA apparent affinity EC50, BtRDL (-3'UTR), 10 ng cRNA, Day 1 post-injection",27.3 ± 1.1 µM
same,EC50,"GABA apparent affinity EC50, BtRDL (-3'UTR), 10 ng cRNA, Day 2 post-injection",10.8 ± 1 µM
same,EC50,"GABA apparent affinity EC50, BtRDL (-3'UTR), 10 ng cRNA, Day 3 post-injection",12.5 ± 1 µM
same,EC50,"GABA apparent affinity EC50, BtRDL alone, 1 ng cRNA (+3'UTR), Day 2",4.6 ± 0.9 µM
same,EC50,"apparent affinity for GABA, BtRDL populations with intermediate apparent affinities (summary in discussion)",~4 µM and ~12 µM
same,EC50,"apparent affinity for GABA, BtRDL receptors with high apparent affinity (summary in discussion)",~30 µM
same,EC50,"apparent affinity for GABA, BtRDL receptors with low apparent affinity (summary in discussion)",~2 µM
"CC(C)c1cccc(C(C)C)c1O [Propofol, propofol]",EC50,"propofol apparent affinity (agonist activation), BtRDL with high apparent affinity for GABA (10 ng cRNA +3'UTR, three-days)",82.9 ± 6.4 µM
same,EC50,"propofol apparent affinity (agonist activation), BtRDL with low apparent affinity for GABA (1 ng cRNA +3'UTR, one-day)",198 ± 19.1 µM
C=C(C)[C@@H]1[C@H]2OC(=O)[C@@H]1[C@]1(O)C[C@H]3O[C@]34C(=O)O[C@H]2[C@]14C [picrotoxinin],IC50,"BtRDL with high apparent affinity for GABA (10 ng cRNA, pGEMHE NheI, three-days), EC50 concentration of GABA 1 μM",14 ± 1.6 µM
same,IC50,"BtRDL with low apparent affinity for GABA (1 ng cRNA, pGEMHE XbaI, three-days), EC50 concentration of GABA 30 μM",1.7 ± 0.3 µM
